# Test results as given in ChEMBL document CHEMBL1138057, “Synthesis and structure-activity relationships of N-{3-[2-(4-alkoxyphenoxy)thiazol-5-yl]-1- methylprop-2-ynyl}carboxy derivatives as selective acetyl-CoA carboxylase 2 inhibitors” (J Med Chem, 2006).
# Activity calls are given as the source filed them. No cut-off for these calls is given here.
# How the values were obtained:
# Acetyl-CoA carboxylase 2 = Acetyl-CoA carboxylase 2 (Homo sapiens, UniProt O00763); assay: Inhibition of human recombinant ACC2 expressed in baculovirus/sf9 system
# Sequence of Acetyl-CoA carboxylase 2 (O00763 whole entry): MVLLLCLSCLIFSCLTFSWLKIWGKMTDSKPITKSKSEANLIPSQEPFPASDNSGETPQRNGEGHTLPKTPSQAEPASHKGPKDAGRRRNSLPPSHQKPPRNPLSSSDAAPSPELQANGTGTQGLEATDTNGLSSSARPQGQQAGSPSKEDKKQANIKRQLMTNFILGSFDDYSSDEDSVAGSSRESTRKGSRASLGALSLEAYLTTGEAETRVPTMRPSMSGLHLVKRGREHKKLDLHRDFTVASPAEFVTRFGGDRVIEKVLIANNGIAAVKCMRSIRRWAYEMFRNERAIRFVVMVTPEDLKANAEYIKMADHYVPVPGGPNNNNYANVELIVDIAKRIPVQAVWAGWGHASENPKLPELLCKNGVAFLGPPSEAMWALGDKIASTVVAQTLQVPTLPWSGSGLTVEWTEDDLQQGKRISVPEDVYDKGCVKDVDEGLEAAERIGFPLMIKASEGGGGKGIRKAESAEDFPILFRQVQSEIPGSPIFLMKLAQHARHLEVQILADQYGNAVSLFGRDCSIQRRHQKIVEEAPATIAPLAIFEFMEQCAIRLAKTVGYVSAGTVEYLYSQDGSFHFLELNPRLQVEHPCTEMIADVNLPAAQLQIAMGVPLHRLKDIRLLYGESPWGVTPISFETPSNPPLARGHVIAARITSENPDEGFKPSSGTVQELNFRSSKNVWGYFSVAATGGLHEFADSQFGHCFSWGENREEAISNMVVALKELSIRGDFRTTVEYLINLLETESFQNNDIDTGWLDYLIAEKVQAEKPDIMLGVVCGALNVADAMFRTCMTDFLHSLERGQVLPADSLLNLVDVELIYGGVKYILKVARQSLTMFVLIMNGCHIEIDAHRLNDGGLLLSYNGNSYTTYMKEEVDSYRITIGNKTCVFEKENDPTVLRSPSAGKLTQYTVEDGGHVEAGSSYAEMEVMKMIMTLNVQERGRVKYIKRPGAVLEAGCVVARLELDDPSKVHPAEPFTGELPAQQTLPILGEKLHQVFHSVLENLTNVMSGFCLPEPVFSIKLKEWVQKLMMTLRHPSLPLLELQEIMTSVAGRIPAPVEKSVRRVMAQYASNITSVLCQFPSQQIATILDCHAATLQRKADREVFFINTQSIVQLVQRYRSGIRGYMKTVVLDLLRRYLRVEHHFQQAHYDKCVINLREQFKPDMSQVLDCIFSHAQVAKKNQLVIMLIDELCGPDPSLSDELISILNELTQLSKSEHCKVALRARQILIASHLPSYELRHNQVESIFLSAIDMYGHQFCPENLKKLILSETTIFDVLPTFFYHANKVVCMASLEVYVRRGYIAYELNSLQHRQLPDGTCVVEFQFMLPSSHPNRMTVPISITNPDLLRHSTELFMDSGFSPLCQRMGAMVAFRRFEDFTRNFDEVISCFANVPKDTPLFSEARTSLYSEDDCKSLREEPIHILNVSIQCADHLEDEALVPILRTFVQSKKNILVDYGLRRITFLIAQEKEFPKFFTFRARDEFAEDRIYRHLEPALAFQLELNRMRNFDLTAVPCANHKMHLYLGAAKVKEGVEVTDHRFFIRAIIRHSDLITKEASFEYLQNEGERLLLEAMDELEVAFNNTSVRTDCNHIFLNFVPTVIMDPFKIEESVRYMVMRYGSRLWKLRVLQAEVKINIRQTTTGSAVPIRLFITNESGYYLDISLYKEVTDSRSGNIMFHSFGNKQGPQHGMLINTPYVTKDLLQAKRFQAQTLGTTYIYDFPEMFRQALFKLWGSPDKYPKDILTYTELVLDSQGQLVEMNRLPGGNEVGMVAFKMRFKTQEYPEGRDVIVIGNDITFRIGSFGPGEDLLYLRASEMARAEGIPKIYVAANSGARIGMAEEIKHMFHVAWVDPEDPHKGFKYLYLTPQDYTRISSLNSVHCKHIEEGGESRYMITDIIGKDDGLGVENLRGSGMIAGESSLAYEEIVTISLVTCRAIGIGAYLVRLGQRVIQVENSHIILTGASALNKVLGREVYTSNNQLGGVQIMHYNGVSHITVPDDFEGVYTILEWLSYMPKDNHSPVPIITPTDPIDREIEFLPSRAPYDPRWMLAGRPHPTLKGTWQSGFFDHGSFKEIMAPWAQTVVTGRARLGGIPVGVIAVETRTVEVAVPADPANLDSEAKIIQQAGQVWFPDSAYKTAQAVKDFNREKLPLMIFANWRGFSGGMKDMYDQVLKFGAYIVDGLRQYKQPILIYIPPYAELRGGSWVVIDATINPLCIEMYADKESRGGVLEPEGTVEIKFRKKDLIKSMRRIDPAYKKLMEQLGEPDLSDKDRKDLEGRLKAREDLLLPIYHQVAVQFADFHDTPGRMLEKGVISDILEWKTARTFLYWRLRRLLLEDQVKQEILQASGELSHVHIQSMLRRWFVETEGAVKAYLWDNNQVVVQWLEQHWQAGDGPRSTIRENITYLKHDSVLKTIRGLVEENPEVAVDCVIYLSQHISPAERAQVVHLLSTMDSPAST
# Acetyl-CoA carboxylase 1 = Acetyl-CoA carboxylase 1 (Homo sapiens, UniProt Q13085); assay: Inhibition of human recombinant ACC1 expressed in HEK293 cells; format: cell-based
# Rattus norvegicus [1] = assay: Drug concentration in Sprague-Dawley rat plasma at 10 mg/kg; format: ADME, organism-based; set-up: dose 10 mg/kg; details: in vivo
# Rattus norvegicus [2] = assay: Reduction of mCoA level in Sprague-Dawley rat muscle at 10 mg/kg, po; format: functional
# Rattus norvegicus [3] = assay: Reduction of mCoA level in Sprague-Dawley rat liver at 10 mg/kg, po; format: functional, organism-based; set-up: dose 10 mg/kg
# Rattus norvegicus [4] = assay: Reduction of mCoA level in Sprague-Dawley rat liver at 50 mg/kg, po; format: functional
# Rattus norvegicus [5] = assay: Reduction of mCoA level in Sprague-Dawley rat muscle at 50 mg/kg, po; format: functional
# Rattus norvegicus [6] = assay: Drug concentration in Sprague-Dawley rat plasma at 50 mg/kg; format: ADME, organism-based; set-up: dose 50 mg/kg; details: in vivo
# [7] = Tmax in rat at 5 mg/kg; format: ADME, organism-based; set-up: dose 5 mg/kg; details: in vivo
# [8] = Plasma clearance in rat at 5 mg/kg; format: ADME, organism-based; set-up: dose 5 mg/kg
# [9] = Cmax in rat at 5 mg/kg; format: ADME, organism-based; set-up: dose 5 mg/kg; details: in vivo
# [10] = Half life in rat at 5 mg/kg, po; format: ADME, organism-based; set-up: dose 5 mg/kg, route oral; details: in vivo
# [11] = Bioavailability in rat at 5 mg/kg; format: ADME, organism-based; details: in vivo
# [12] = Volume of distribution in rat at 5 mg/kg; format: ADME, organism-based; set-up: dose 5 mg/kg; details: in vivo, read-out: Vss
# [13] = AUC in rat at 5 mg/kg, po; format: ADME, organism-based; set-up: dose 5 mg/kg, route oral; details: plasma
SMILES,IC50 (Acetyl-CoA carboxylase 2),IC50 (Acetyl-CoA carboxylase 1),also measured
CC(=O)NC(C#Cc1cnc(Oc2ccc(OC(C)C)cc2)s1)C1CC1 (stereo not drawn),0.84 µM,> 30 µM,–
CC(=O)NC(C)C#Cc1cnc(Oc2ccc(SC(C)C)cc2)s1 (stereo not drawn),0.055 µM,0.37 µM,–
CC(=O)NC(C)C#Cc1cnc(Oc2ccc(C(C)C)cc2)s1 (stereo not drawn),> 30 µM,1.25 µM,–
O=C(c1c2ccccc2cc2ccccc12)N1CCC(N2CCC[C@@H](C(=O)N3CCOCC3)C2)CC1,0.038 µM,0.41 µM,–
CC(=O)NC(C)C#Cc1cnc(Oc2ccc(OC(C)C)cc2)s1 (stereo not drawn),0.019 µM,> 30 µM,–
COC(=O)N[C@H](C)C#Cc1cnc(Oc2ccc(OC(C)C)cc2)s1,1.51 µM,> 30 µM,Cp (Rattus norvegicus [1]): 1330 ng/mL; Activity (Rattus norvegicus [2]; Muscle tissue): inactive; Activity (Rattus norvegicus [3]): inactive; Activity (Rattus norvegicus [4]): inactive; Activity (Rattus norvegicus [5]; Muscle tissue): inactive; Cp (Rattus norvegicus [6]): 5330 ng/mL
CC(N)C#Cc1cnc(Oc2ccc(Oc3ccccc3)cc2)s1 (stereo not drawn),2.42 µM,> 30 µM,–
CC(=O)NC(C)C#Cc1cnc(Oc2ccc(OC(C)C)nc2)s1 (stereo not drawn),0.015 µM,0.39 µM,–
COC(=O)N[C@@H](C)C#Cc1cnc(Oc2ccc(OC(C)C)cc2)s1,0.038 µM,> 30 µM,Cp (Rattus norvegicus [1]): 1540 ng/mL; Activity (Rattus norvegicus [2]): 36%; Activity (Rattus norvegicus [4]): 26%; Activity (Rattus norvegicus [5]): 54%; Cp (Rattus norvegicus [6]): 4900 ng/mL
CC(O)C#Cc1cnc(Oc2ccc(Oc3ccccc3)cc2)s1 (stereo not drawn),0.6 µM,> 30 µM,–
COC(=O)NC(C)C#Cc1cnc(Oc2ccc(OC(C)C)cc2)s1 (stereo not drawn),0.096 µM,> 30 µM,Tmax [7]: 2 h; clearance [8]: 3.33 mL/min/kg; Cmax [9]: 900 ng/mL; half-life [10]: > 12 h; bioavailability [11]: 80.4%; Vd [12]: 5 L/kg; AUC [13]: 18900 ng·h/mL
CC(=O)NC(C)C#Cc1csc(Oc2ccc(OC(C)C)cc2)n1 (stereo not drawn),> 30 µM,> 30 µM,–
CC(=O)NC(C)C#Cc1cnc(Oc2ccc(Oc3ccccc3)cc2)s1 (stereo not drawn),0.011 µM,0.26 µM,–

# Further lines, with some results ahead:
IC50 (Acetyl-CoA carboxylase 2),IC50 (Acetyl-CoA carboxylase 1),SMILES,also measured
0.069 µM,> 30 µM,CC(=O)NC(C)C#Cc1cnc(Sc2ccc(OC(C)C)cc2)s1 (stereo not drawn),–
1.73 µM,> 30 µM,CC(=O)NCC#Cc1cnc(Oc2ccc(OC(C)C)cc2)s1,–
0.03 µM,> 30 µM,CNC(=O)NC(C)C#Cc1cnc(Oc2ccc(OC(C)C)cc2)s1 (stereo not drawn),–
0.006 µM,0.029 µM,CC(=O)NC(C)C#Cc1ccc(Oc2ccc(OC(C)C)cc2)cc1 (stereo not drawn),–
0.15 µM,> 30 µM,CC(=O)NC(C)C#Cc1cnc(Oc2ccc(NC(C)C)cc2)s1 (stereo not drawn),–
0.08 µM,1 µM,CC(C#Cc1cnc(Oc2ccc(Oc3ccccc3)cc2)s1)N(O)C(N)=O (stereo not drawn),–
0.026 µM,> 30 µM,CC(C#Cc1cnc(Oc2ccc(Oc3ccccc3)cc2)s1)NC(N)=O (stereo not drawn),–
